# Assay results as given in patent US20010031729A1, “Composition comprising carbohydrate and peptide material and its use as an energy supplement after or during physical exercise or as a metabolic nutrient for oral consumption” (priority 1999, published 2001).
# System: healthy, non-obese male subjects after an overnight fast
# Experiment: First study: insulinotropic effect of test drinks co-ingested with carbohydrate, plasma insulin by radio-immuno-assay
# Type: in vivo, human
# Settings: 1st study
# Text: In studies presented below the effects of intact casein, several protein hydrolysates and protein hydrolysate in combination wit specific amino acids have been examined. The sodium casein used in this study is commercially available from DMV-International. Glucose and maltodextrin were obtained from AVEBE (the Netherlands) and crystalline amino acids from BUFA (the Netherlands). In the presented study the following commercially available protein hydrolysates from Quest-International have been used: Hyprol® 3301 (whey protein hydrolysate, average peptide chain length of 4.1), Hyprol® 4107 (wheat gluten protein hydrolysate, average peptide chain length of 12.2) and Hyprol® 7102 (pea protein hydrolysate, average peptide chain length of 6.4). The insulin responses in blood plasma was analysed by radio-immuno-assay (Insulin RIA 100 kit, Pharmacia, Sweden),
# In three studies the efficiency of an amino acid and/or protein (hydrolysate) mixture in a carbohydrate containing drink with respect to their insulinotropic effect in human subjects was examined. […]
# Eight healthy, non-obese male subjects (age 21±0.4, weight 73.9±2.2 kg, height 186±2 cm, BMI 21.4±0.7 kg·m^−2) after an overnight fast, were tested for 2 hours on 10 occasions in which different beverage compositions were ingested. […] The insulin response is expressed as area under the curve during the second hour. […]
structure (smiles),measurement,setting,value
NC(=O)CC[C@H](N)C(=O)O [glutamine],Influence of addition of free glutamine on plasma glutamine concentrations,,hardly influenced
same,"Effect on the insulin response of addition to the mixture of arginine, leucine and phenylalanine",healthy men,no effect
